Reference: patent US12123876B2, “Antibody binding to HEG1 and use of the antibody for detection and treatment of mesothelioma” (Kanagawa Prefectural Hospital Organization, priority 2016, dated 2024)
Entries after “also recorded” stand apart in the source; their conditions may differ.

Experiments:
[1] = target: recombinant human intelectin-1 (Homo sapiens, UniProt Q8WWA0, V109D); experiment: Biacore inhibition of intelectin binding to diol structure; settings: inhibition of intelectin (0.5 μg/mL) binding
Procedure: The binding between intelectin and the diol SEPHAROSE® (crosslinked, beaded-form of agarose) beads was inhibited in the presence of another compound with diol structure. An experiment was conducted in which binding of recombinant human intelectin-1 to a sensor chip including 3-Amino-1-propanediol fixed thereto via amino groups was measured by using a Biacore (GE Healthcare Bio-Sciences AB) in the presence of various compounds serially diluted, where intelectin was used with a final concentration of 0.5 μg/mL, and 10 mM HEPES buffer (pH 7.0) containing 1 mM CaCl2), 150 mM NaCl, and 0.03% TWEEN® 20 (polyethylene glycol sorbitan monolaurate, polyoxyethylenesorbitan monolaurate) was used as buffer for measurement, and the binding rate of intelectin was determined for each sample as the degree of binding of intelectin measured for a sample without addition of compound was defined as a binding rate of 100%.

SKM9-2 antibody = experiment: Western blot reactivity of human HEG1 fragments expressed in ACC-MESO-1 with SKM9-2 antibody; format: binding, mouse; settings: for Binding to SKM9-2 antibody (positive/negative): Western blot of cell lysate
Procedure: In this Example, the mesothelioma cell line ACC-MESO-1 was allowed to express a human HEG1 fragment with the endogenous HEG1 of ACC-MESO-1 knocked down, and the reactivity with the SKM9-2 antibody was examined. Subsequently, the reactivity with the antibody was tested for the epitope region through alanine scanning, and key amino acids for binding to the antibody were determined.
Gene transfer was performed with HEG1 siRNA (H9106) (SEQ ID NOs: 40, 41) and human HEG1 for the mesothelioma cell line ACC-MESO-1, and the reactivity of the SKM9-2 was examined through Western blot analysis. A full length protein (HEG1 full length) or a fragment (HEG1 3 kb, HEG1 2 kb, or HEG1 1 kb) of the human HEG1 was used. The full length human HEG1 protein, a protein having the amino acid sequence set forth in SEQ ID NO: 35, was obtained through inserting a base sequence set forth in SEQ ID NO: 34 into pFLAG-CMV1 (Sigma-Aldrich Japan K.K.) to obtain a plasmid, transforming the plasmid, and allowing the mesothelioma cell line to express the plasmid. Fragment HEG1 3 kb was obtained through inserting a fragment corresponding to a sequence from position 285, leucine, to position 1387, phenylalanine, of SEQ ID NO: 35 into pFLAG-CMV1 (Sigma-Aldrich Japan K.K.) in an in-frame manner, and allowing the mesothelioma cell line to express the resultant. HEG1 2 kb and HEG1 1 kb were obtained through allowing the mesothelioma cell line to express products similarly obtained from a fragment corresponding to a sequence from position 677, leucine, to position 1387, phenylalanine, of SEQ ID NO: 35 and a fragment corresponding to a sequence from position 992, valine, to position 1387, phenylalanine, of SEQ ID NO: 35, respectively. Each cell lysate was analyzed through Western blot with the SKM9-2 antibody.
Further, the region in exon 7 of HEG1 was analyzed in detail. […]

HEK-293T cells = experiment: Cell proliferation after HEG1 siRNA, HEK-293T; format: cell-based; settings: which do not express HEG1
NCI-H2452 cells = experiment: Cell proliferation after HEG1 knock-down, NCI-H2452; format: cell-based; settings: NCI-H2452, another mesothelioma cell line

Chain of recombinant human intelectin-1 (Q8WWA0 19-298 V109D): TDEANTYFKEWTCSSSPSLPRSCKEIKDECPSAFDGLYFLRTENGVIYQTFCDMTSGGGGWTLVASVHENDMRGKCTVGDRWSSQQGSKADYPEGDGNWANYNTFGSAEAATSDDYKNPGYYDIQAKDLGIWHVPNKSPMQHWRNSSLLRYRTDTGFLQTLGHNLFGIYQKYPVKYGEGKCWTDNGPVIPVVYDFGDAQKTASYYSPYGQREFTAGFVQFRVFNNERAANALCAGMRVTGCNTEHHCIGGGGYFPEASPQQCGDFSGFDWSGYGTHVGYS

IC50 [1] [µM]	Compound	further results
800	CCCC(=O)OCC(O)CO (stereo not shown) [Monobutyrin]	
≤ 1000	O=C[C@H](O)[C@H](O)[C@H](O)CO [D-Ribose]	
	7.6231: SEQ ID NO: 49 (SKSPSLVSLPTE) bonded to SLURPgpi (GGSKSPSLVSLPTEGG; 7.6231 - SLURPgpi (7.6231))	Binding to SKM9-2 antibody (positive/negative) (SKM9-2 antibody): positive; Binding to SKM9-2 antibody (positive/negative) (SKM9-2 antibody; listed as fragment 7.6231): positive signal; Reaction with SKM9-2 antibody after neuraminidase treatment (SKM9-2 antibody; lysate treated with neuraminidase, listed as fragment 7.6231): disappeared; also recorded: does not react
≤ 1000	OCC(O)CO [Glycerol]	
≤ 1000	CCC(O)CO (stereo not shown) [1,2-Butanediol]	
	H2674: siRNA for human HEG1; sense SEQ ID NO: 25 CCUAUAGCCGUACAGACUACA, antisense SEQ ID NO: 26; called HEG1 siRNA in b178 (antisense UAGUCUGUACGGCUAUAGGGC; listed as RNA, chemistry not given here)	Cell proliferation (HEK-293T cells): not affected; Cell proliferation (NCI-H2452 cells): suppressed cell proliferation
≤ 1000	O=C1O[C@H]([C@@H](O)CO)C(O)=C1O [L-Ascorbic acid]	
≤ 1000	O=C[C@@H](O)[C@@H](O)[C@@H](O)CO [L-Ribose]	

Compound	IC50 [1] [µM]	further results
C[C@@H](O)CO [(R)-1,2-Propanediol]	1000	
CC(O)CO (stereo not shown) [1,2-Propanediol]	900	
